From patent publication US10647727B2, “Substituted pyrazolo/imidazolo bicyclic compounds as PDE2 inhibitors” (Merck Sharp & Dohme Corp., priority 2015, dated 2020)
Like-named read-outs stand apart in the source and are kept apart here.

Experiments:
human PDE2A1 = human PDE2A1 (Homo sapiens (Human), UniProt O00408); assay: biochemical; type: biochemical
Rhesus PDE2A3 = Rhesus PDE2A3 (Macaca mulatta, UniProt B3VTJ2); assay: PDE2 fluorescence polarization (IMAP FP) inhibition assay, rhesus enzyme; type: biochemical, rhesus macaque
Sequence of Rhesus PDE2A3 (B3VTJ2 1-941): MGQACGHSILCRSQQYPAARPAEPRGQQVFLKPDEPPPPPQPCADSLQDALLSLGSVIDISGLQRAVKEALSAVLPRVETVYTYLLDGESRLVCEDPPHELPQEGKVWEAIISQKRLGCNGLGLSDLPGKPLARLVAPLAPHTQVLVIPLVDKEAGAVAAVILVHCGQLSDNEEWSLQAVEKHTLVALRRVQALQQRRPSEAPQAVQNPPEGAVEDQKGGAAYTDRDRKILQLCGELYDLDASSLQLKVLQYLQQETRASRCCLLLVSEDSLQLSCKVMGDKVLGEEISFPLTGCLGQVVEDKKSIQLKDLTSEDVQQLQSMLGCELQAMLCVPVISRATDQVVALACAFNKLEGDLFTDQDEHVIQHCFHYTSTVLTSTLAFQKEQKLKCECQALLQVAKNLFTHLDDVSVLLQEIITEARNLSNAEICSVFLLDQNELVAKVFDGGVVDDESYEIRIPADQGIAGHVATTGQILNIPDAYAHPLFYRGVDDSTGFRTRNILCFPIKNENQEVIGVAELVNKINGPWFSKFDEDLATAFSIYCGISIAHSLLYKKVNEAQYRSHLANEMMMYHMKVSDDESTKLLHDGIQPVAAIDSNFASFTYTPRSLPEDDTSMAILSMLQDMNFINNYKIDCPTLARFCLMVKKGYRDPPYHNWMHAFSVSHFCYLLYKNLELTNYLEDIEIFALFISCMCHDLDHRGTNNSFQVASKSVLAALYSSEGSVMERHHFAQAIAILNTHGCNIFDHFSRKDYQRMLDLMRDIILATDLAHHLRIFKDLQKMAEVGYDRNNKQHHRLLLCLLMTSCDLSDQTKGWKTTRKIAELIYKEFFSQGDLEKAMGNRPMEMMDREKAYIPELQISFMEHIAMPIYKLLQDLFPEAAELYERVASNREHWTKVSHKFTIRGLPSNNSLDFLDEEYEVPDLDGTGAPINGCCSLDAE

[1] = reported in Brandon et al. 2007; cited from earlier work
[2] = Lab B, read-out: Human PDE2 Ki (nM) Lab B
[3] = Lab A, read-out: Rhesus PDE2 Ki (nM) Lab A
[4] = Lab A, read-out: Human PDE2 Ki (nM) Lab A
[5] = read-out: Human PDE2 Ki (nM) Lab B
[6] = Lab B, read-out: Rhesus PDE2 Ki (nM) Lab B

Sequence of human PDE2A1 (O00408 other isoform, or with tags, fused parts or gaps): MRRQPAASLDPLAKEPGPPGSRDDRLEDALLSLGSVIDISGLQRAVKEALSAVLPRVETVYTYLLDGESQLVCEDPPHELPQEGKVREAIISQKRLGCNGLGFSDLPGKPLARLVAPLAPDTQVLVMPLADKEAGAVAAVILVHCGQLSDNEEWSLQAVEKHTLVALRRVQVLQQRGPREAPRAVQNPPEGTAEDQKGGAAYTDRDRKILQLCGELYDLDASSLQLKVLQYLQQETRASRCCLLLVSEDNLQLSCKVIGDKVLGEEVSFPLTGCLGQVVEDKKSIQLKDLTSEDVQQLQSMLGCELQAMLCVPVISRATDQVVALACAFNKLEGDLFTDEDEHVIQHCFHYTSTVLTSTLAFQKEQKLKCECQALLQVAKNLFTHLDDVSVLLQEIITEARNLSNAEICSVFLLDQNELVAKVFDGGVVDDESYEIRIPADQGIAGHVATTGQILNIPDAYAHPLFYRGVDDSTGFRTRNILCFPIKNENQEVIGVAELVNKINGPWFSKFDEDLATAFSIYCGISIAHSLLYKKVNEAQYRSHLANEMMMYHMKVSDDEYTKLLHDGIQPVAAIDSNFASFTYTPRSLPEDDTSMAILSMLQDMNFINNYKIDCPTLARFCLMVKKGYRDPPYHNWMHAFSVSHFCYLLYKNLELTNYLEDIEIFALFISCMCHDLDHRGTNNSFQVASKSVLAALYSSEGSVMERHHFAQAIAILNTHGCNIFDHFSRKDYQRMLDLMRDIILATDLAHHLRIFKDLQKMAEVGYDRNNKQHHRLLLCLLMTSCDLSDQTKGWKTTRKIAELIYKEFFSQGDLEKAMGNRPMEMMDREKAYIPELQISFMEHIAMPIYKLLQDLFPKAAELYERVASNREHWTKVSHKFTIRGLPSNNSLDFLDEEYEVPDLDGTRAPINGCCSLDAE

| SMILES | Ki (human PDE2A1; [2]) | also measured |
| --- | --- | --- |
| Cc1cc(NC2(c3ccc(C(F)(F)F)c(F)c3)CC2)n2ncc(C#N)c2n1 [Example 39, 7-((1-(3-Fluoro-4-(trifluoromethyl)phenyl)cyclopropyl)amino)-5-methylpyrazolo[1,5-a]pyrimidine-3-carbonitrile] | 503 nM |  |
| Cc1cc(NC2(c3ccc(C(F)(F)F)c(F)c3)CC2)n2nccc2n1 [Example 47, N-{1-[3-Fluoro-4-(trifluoromethyl)phenyl]cyclopropyl}-5-methylpyrazolo[1,5-a]pyrimidin-7-amine] | 199 nM |  |
| Cc1cc(NC2(c3ccc(C(F)(F)F)c(F)c3)CC2)n2ncc(N)c2n1 [Example 41, N^7-{1-[3-Fluoro-4-(trifluoromethyl)phenyl]cyclopropyl}-5-methylpyrazolo[1,5-a]pyrimidine-3,7-diamine] | 337 nM |  |
| C[C@H](c1ccc(C(F)(F)F)cc1)N(C)c1nc(Cl)nc2c1cnn2C [Example 14, 6-Chloro-N,1-dimethyl-N-{(1R)-1-[4-(trifluoromethyl)phenyl]ethyl}-1H-pyrazolo[3,4-d]pyrimidin-4-amine] |  | Ki (Rhesus PDE2A3; [3]): 137 nM; Ki (human PDE2A1; [4]): 65 nM |
| CC(C)c1ccc(C(C)Nc2nc(Cl)nc3c2cnn3C)cc1 (stereo not shown) [Example 5, 6-Chloro-1-methyl-N-{1-[4-(1-methylethyl)-phenyl]ethyl}-1H-pyrazolo-[3,4-d]pyrimidin-4-amine] |  | Ki (Rhesus PDE2A3; [3]): 401 nM |
| Cc1cc(NC2(c3ccc(C(F)(F)F)c(F)c3)CC2)n2ccnc2n1 [Example 31, N-(1-(3-Fluoro-4-(trifluoromethyl)phenyl)cyclopropyl)-7-methylimidazo[1,2-a]pyrimidin-5-amine] |  | Ki (human PDE2A1; [5]): 55 nM |
| CC(Nc1nc(Cl)nc2c1cnn2C(C)C)c1ccc(C(F)(F)F)cc1 (stereo not shown) [Example 18, 6-Chloro-1-(1-methylethyl)-N-{1-[4-(trifluoromethyl)phenyl]ethyl}-1H-pyrazolo[3,4-d]pyrimidin-4-amine] |  | Ki (Rhesus PDE2A3; [3]): 1970 nM |
| Cc1nc(NC2(c3ccc(C(F)(F)F)c(F)c3)CC2)c2nc[nH]c2n1 [Example 36, N-{1-[3-Fluoro-4-(trifluoromethyl)phenyl]cyclopropyl}-2-methyl-9H-purin-6-amine] | 206 nM |  |
| Cc1nc(NC2(c3ccc(C(F)(F)F)cc3F)CC2)c2cnn(C)c2n1 [Example 24, N-{1-[2-Fluoro-4-(trifluoromethyl)-phenyl]cyclo-propyl}-1,6-dimethyl-1H-pyrazolo[3,4-d]-pyrimidin-4-amine] | 29 nM |  |
| CN(c1nc(Cl)nc2c1cnn2C)C1(c2ccc(C(F)(F)F)cc2)CC1 [Example 17, 6-Chloro-N,1-dimethyl-N-{1-[4-(trifluoromethyl)phenyl]cyclopropyl}-1H-pyrazolo[3,4-d]pyrimidin-4-amine] | 3.8 nM | Ki (Rhesus PDE2A3; [3]): 1.5 nM; Ki (Rhesus PDE2A3; [6]): 6 nM |
| Cc1cc(N[C@@H](c2ccc(C(F)(F)F)c(F)c2)C(C)(C)C)n2ncc(C#N)c2n1 [Example 40, 7-({(1R)-1-[3-Fluoro-4-(trifluoromethyl)phenyl]-2,2-dimethylpropyl}amino)-5-methylpyrazolo[1,5-a]pyrimidine-3-carbonitrile] | 462 nM |  |
| Cc1nc(OC2(c3ccc(C(F)(F)F)cc3)CC2)c2cnn(C)c2n1 [Example 30, 1,6-Dimethyl-4-({1-[4-(trifluoromethyl)phenyl]cyclopropyl}oxy)-1H-pyrazolo[3,4-d]pyrimidine] | 32 nM |  |
| CC(C)(O)C(Nc1nc(C(F)(F)F)cc2nccn12)c1ccc(C(F)(F)F)c(F)c1 (single isomer, unassigned) [Example 33, (R or S)-1-[3-Fluoro-4-(trifluoromethyl)phenyl]-2-methyl-1-{[7-(trifluoromethyl)imidazo[1,2-c]pyrimidin-5-yl]amino}propan-2-ol] |  | Ki (human PDE2A1; [5]): 1330 nM |
| Cc1nc(N[C@H](C)c2ccc(C(F)(F)F)cc2)c2cnn(C)c2n1 [Example 21, 1,6-Dimethyl-N-{(1R)-1-[4-(trifluoromethyl)-phenyl]ethyl}-1H-pyrazolo[3,4-d]-pyrimidin-4-amine] |  | Ki (Rhesus PDE2A3; [3]): 194 nM; Ki (human PDE2A1; [4]): 140 nM |
| CC(Nc1nc(Cl)nc2c1cnn2C)c1ccc(-n2cccn2)cc1 (stereo not shown) [Example 7, 6-Chloro-1-methyl-N-{1-[4-(1H-pyrazol-1-yl)phenyl]-ethyl}-1H-pyrazolo[3,4-d]-pyrimidin-4-amine] |  | Ki (Rhesus PDE2A3; [3]): 2650 nM |
| Cc1cc(N[C@@H](c2ccc(C(F)(F)F)c(F)c2)C(C)(C)C)n2ncc(N)c2n1 [Example 42, N^7-{(1R)-1-[3-Fluoro-4-(trifluoromethyl)phenyl]-2,2-dimethylpropyl}-5-methylpyrazolo[1,5-a]pyrimidine-3,7-diamine] | 580 nM |  |
| COc1ccc(Cc2nn3c([C@@H](CCCc4ccccc4)[C@@H](C)O)nc(C)c3c(=O)[nH]2)cc1OC [Bay 60-7550] |  | brain penetration [1]: limited |
| Cc1nc(N[C@@H](c2ccc(C(F)(F)F)c(F)c2)C(C)(C)C)c2nc[nH]c2n1 [Example 35] | 566 nM |  |

| SMILES | Ki (human PDE2A1; [2]) | also measured |
| --- | --- | --- |
| Cc1nc(NC2(c3ccc(C(F)(F)F)c(F)c3)CC2)c2ncn(C)c2n1 [Example 37, N-(1-(3-Fluoro-4-(trifluoromethyl)phenyl)cyclopropyl)-2,9-dimethyl-9H-purin-6-amine] | 115 nM |  |
| Cc1cc(NC2(c3ccc(C(F)(F)F)c(F)c3)CC2)n2nc(CO)cc2n1 [Example 43, [7-({1-[3-Fluoro-4-(trifluoromethyl)phenyl]cyclopropyl}amino)-5-methylpyrazolo[1,5-a]pyrimidin-2-yl]methanol] | 169 nM |  |
| Cc1nc(N(C)C2(c3ccc(C(F)(F)F)cc3)CC2)c2cnn(C)c2n1 [Example 26, N,1,6-Trimethyl-N-{1-[4-(trifluoromethyl)phenyl]cyclopropyl}-1H-pyrazolo[3,4-d]pyrimidin-4-amine] | 4.9 nM |  |
| Cn1ncc2c(NC3(c4ccc(C(F)(F)F)cc4)CC3)nc(C(F)(F)F)nc21 [Example 19, 1-Methyl-6-(trifluoromethyl)-N-(1-(4-(trifluoromethyl)phenyl)cyclopropyl)-1H-pyrazolo[3,4-d]pyrimidin-4-amine] | 67 nM | Ki (Rhesus PDE2A3; [6]): 80 nM |
| Cc1cc(N[C@@H](c2ccc(C(F)(F)F)c(F)c2)C(C)(C)C)n2ccnc2n1 [Example 32, (R)—N-(1-(3-Fluoro-4-(trifluoromethyl)phenyl)-2,2-dimethylpropyl)-7-methylimidazo[1,2-a]pyrimidin-5-amine] | 51 nM |  |
| Cc1cc(NC2(c3ccc(C(F)(F)F)c(F)c3)CC2)n2ncc(CO)c2n1 [Example 45, [7-({1-[3-Fluoro-4-(trifluoromethyl)phenyl]cyclopropyl}amino)-5-methylpyrazolo[1,5-a]pyrimidin-3-yl]methanol] | 682 nM |  |
| Cc1cc(N[C@@H](c2ccc(C(F)(F)F)c(F)c2)C(C)(C)C)n2ncc(CO)c2n1 [Example 46] | ~2640 nM |  |
| Cc1nc(NC2(c3ccc(OC(F)(F)F)c(F)c3)CC2)c2cnn(C)c2n1 [Example 22] | 35 nM | Ki (Rhesus PDE2A3; [6]): 55 nM |
| Cc1nc(NC2(c3ccc(C(F)(F)F)c(F)c3)CC2)c2cnn(CC(F)(F)F)c2n1 [Example 28, N-{1-[3-Fluoro-4-(trifluoromethyl)phenyl]cyclopropyl}-6-methyl-1-(2,2,2-trifluoroethyl)-1H-pyrazolo[3,4-d]pyrimidin-4-amine] | 76 nM | Ki (Rhesus PDE2A3; [6]): 98 nM |
| Cc1cc(N[C@@H](c2ccc(C(F)(F)F)c(F)c2)C(C)(C)C)n2nccc2n1 [Example 48, N-{(1R)-1-[3-Fluoro-4-(trifluoromethyl)phenyl]-2,2-dimethylpropyl}-5-methylpyrazolo[1,5-a]pyrimidin-7-amine] | 174 nM |  |
| CCN(Cc1ccc(C(F)(F)F)cc1)c1nc(Cl)nc2c1cnn2C [Example 16, 6-Chloro-N-ethyl-1-methyl-N-[4-(trifluoromethyl)-benzyl]-1H-pyrazolo-[3,4-d]pyrimidin-4-amine] |  | Ki (Rhesus PDE2A3; [3]): 866 nM; Ki (human PDE2A1; [4]): 429 nM |
| Cc1nc(NC2(c3ccc(SC(F)(F)F)cc3)CC2)c2cnn(C)c2n1 [Example 23, 1,6-Dimethyl-N-(1-{4-[(trifluoromethyl)-sulfanyl]phenyl}-cyclopropyl)-1H-pyrazolo[3,4-d]-pyrimidin-4-amine] | 16 nM | Ki (Rhesus PDE2A3; [6]): 20 nM |
| Cn1ncc2c(NC3(c4ccc(C(F)(F)F)cc4)CC3)nc(C#N)nc21 [Example 29, 1-Methyl-4-{1-[4-(trifluoromethyl)phenyl]cyclopropylamino}-1H-pyrazolo[3,4-d]pyrimidine-6-carbonitrile] | 39 nM | Ki (Rhesus PDE2A3; [6]): 47 nM |
| CN(Cc1ccc(C(F)(F)F)cc1)c1nc(Cl)nc2c1cnn2C [Example 15, 6-Chloro-N,1-dimethyl-N-[4-(trifluoromethyl)-benzyl]-1H-pyrazolo-[3,4-d]pyrimidin-4-amine] |  | Ki (Rhesus PDE2A3; [3]): 997 nM |
| CC(C)(O)C(Nc1nc(C(F)(F)F)cc2nccn12)c1ccc(C(F)(F)F)c(F)c1 (single isomer, unassigned) [Example 34, (S or R)-1-[3-Fluoro-4-(trifluoromethyl)phenyl]-2-methyl-1-{[7-(trifluoromethyl)imidazo[1,2-c]pyrimidin-5-yl]amino}propan-2-ol] |  | Ki (human PDE2A1; [5]): > 2960 nM |
| Cc1nc(NC2(c3ccc(C(F)(F)F)cc3)CCC2)c2cnn(C)c2n1 [Example 25, 1,6-Dimethyl-N-{1-[4-(trifluoro-methyl)phenyl]-cyclobutyl}-1H-pyrazolo[3,4-d]-pyrimidin-4-amine] | 430 nM | Ki (Rhesus PDE2A3; [6]): 358 nM |
| CCC(Nc1nc(Cl)nc2c1cnn2C)c1ccc(C(C)C)cc1 (stereo not shown) [Example 6, 6-Chloro-1-methyl-N-{1-[4-(1-methylethyl)-phenyl]propyl}-1H-pyrazolo-[3,4-d]pyrimidin-4-amine] |  | Ki (Rhesus PDE2A3; [3]): 468 nM |
